The text below walks through data of patent US20240376076A1, “INHIBITORS TARGETING UBIQUITIN SPECIFIC PROTEASE 7 (USP7)” (Dana-Farber Cancer Institute, Inc., priority 2021, published 2024).

Data set [1] is described as follows: mouse liver microsomal stability (Microsome Assay Protocol). Format: in vitro ADME. The following applies: pH 7.4; mouse liver microsomes, NADPH, 37° C.; read-out: MLM t1/2, min. The method, then:
(§1) ND refers to not disclosed.
• 1. Buffer A: 1.0 L of 0.1 M monobasic Potassium Phosphate buffer containing 1.0 mM EDTA Buffer B: 1.0 L of 0.1 M Dibasic Potassium Phosphate buffer containing 1.0 mM EDTA • Buffer C: 0.1 M Potassium Phosphate buffer, 1.0 mM EDTA, pH 7.4 by titrating 700 mL of buffer B with buffer A while monitoring with a pH meter. • 2. Reference compound (Ketanserin) and test compounds spiking solution: • 500 μM spiking solution: added 10 μL of 10 mM DMSO stock solution into 190 μL ACN. • 1.5 μM spiking solution in microsomes (0.75 mg/mL): added 1.5 μL of 500 μM spiking solution and 18.75 μL of 20 mg/mL liver microsomes into 479.75 μL of Buffer C on ice. • 3. Prepared NADPH stock solution (6 mM) by dissolving NADPH into buffer C. Dispensed 30 μL of 1.5 μM spiking solution containing 0.75 mg/mL microsomes solution to the assay plates designated for different time points (0-, 5-, 15-, 30-, 45-min) on ice. For 0-min, added 135 μL of ACN containing IS to the wells of 0-min plate and then added 15 μL of NADPH stock solution (6 mM). Pre-incubated all other plates at 37° C. for 5 minutes. Added 15 μL of NADPH stock solution (6 mM) to the plates to start the reaction and timing. At 5-min, 15-min, 30-min, and 45-min, added 135 μL of ACN containing IS to the wells of corresponding plates, respectively, to stop the reaction. After quenching, shook the plates at the vibrator (IKA, MTS 2/4) for 10 min (600 rpm/min) and then centrifuged at 5594 g for 15 min (Thermo Multifuge×3R). Transferred 50 μL of the supernatant from each well into a 96-well sample plate containing 50 μL of ultra pure water (Millipore, ZMQS50F01) for LC/MS analysis.
(Liver microsomes are a subcellular fraction often used to study metabolism.)

In data set [2] the target is T1, USP7, Active human recombinant protein (Homo sapiens, UniProt Q93009).
T1 construct: purchased CP Lot; 20200225001
The data set is described as follows: USP7 assay (Ubiquitin-Rhodamine 110 enzymatic assay). The class given is biochemical. The note with it: read-out: IC50. On the procedure:
Enzymatic Assays with Exemplary USP7 Irreversible Inhibitors
as §1
USP7, Active human recombinant protein (CP, Lot. 20200225001), Ubiquitin-Rhodamine 110 (Rh110) (BostonBiochem, Cat. No. U-555), DMSO (Sigma, Cat. N34869), DTT (Sangon Biotech, Cat. No. A620058-0005), […] Tris pH 8.0 (Sigma, Cat. No. T2694-1L), Tween-20 (Sigma, Cat. No. P2287-100ML), EDTA (Invitrogen, Cat. No. 15575020, BSA (Sigma, Cat. No. B2064-100G), 384-well assay plate (Corning, Cat. No. 3573), Echo Qualified 384-Well Polypropylene Microplate 2.0, Clear, Flat Bottom (LABCYTE, Cat. No. 001-14555).
Dilute the compounds to 400× of the final desired highest inhibitor concentration in reaction by 100% DMSO. For all compounds, transfer the compounds to one well in a 384-well Echo plate and serially dilute the compound by 3-fold dilution of 100% DMSO in the next well and so forth for a total of 10 concentrations by Precision. Add 30 μL of 100% DMSO to two empty wells for no compound control and no enzyme control in the same 384-well Echo plate. Make the plate as a source plate.
For USP7 assay, transfer 50 nL of each well from the source plate to a 384-well assay plate (OptiPlate TM-384 F black assay plates) by Echo 550 Liquid Handler.
Added appropriate amount of USP7 in 1× assay Buffer to prepare 2× enzyme solution (USP7 final concentration: 0.05 nM). Added appropriate amount of Ubiquitin-Rhodamine 110 in 1× assay Buffer to prepare 2× substrate solution (Ubiquitin-Rhodamine 110 final concentration: 190 nM). Added 10 μL of 2× enzyme solution to each reaction well of the 384-well assay plate, except for control wells without enzyme (add 10 μL of 1× Assay Buffer instead as for low control). […] Transferred 2× substrate solution to the assay plate. Added 10 μL of 2× substrate solution to each well of the 384-well assay plate to start reaction. Centrifuged at 1000 rpm for 1 min. Read the plate kinetically on SpectraMax Paradigm for 20 min with excitation at 485 nm and emission at 535 nm. Copied raw data (slope) from Reader to obtain inhibition values in Excel using equation (1): […]
Max signal was obtained from the action of Enzyme and Substrate. Min signal was obtained from the Substrate only. To fit the data in XLFit excel add-in version 5.4.0.8 to obtain IC50 values used equation (2): […]
Y is % inhibition and X is compound concentration.

SMILES strings stand for the structures. pIC50: −log10 of the molar value.

T1 sequence (Q93009 whole entry): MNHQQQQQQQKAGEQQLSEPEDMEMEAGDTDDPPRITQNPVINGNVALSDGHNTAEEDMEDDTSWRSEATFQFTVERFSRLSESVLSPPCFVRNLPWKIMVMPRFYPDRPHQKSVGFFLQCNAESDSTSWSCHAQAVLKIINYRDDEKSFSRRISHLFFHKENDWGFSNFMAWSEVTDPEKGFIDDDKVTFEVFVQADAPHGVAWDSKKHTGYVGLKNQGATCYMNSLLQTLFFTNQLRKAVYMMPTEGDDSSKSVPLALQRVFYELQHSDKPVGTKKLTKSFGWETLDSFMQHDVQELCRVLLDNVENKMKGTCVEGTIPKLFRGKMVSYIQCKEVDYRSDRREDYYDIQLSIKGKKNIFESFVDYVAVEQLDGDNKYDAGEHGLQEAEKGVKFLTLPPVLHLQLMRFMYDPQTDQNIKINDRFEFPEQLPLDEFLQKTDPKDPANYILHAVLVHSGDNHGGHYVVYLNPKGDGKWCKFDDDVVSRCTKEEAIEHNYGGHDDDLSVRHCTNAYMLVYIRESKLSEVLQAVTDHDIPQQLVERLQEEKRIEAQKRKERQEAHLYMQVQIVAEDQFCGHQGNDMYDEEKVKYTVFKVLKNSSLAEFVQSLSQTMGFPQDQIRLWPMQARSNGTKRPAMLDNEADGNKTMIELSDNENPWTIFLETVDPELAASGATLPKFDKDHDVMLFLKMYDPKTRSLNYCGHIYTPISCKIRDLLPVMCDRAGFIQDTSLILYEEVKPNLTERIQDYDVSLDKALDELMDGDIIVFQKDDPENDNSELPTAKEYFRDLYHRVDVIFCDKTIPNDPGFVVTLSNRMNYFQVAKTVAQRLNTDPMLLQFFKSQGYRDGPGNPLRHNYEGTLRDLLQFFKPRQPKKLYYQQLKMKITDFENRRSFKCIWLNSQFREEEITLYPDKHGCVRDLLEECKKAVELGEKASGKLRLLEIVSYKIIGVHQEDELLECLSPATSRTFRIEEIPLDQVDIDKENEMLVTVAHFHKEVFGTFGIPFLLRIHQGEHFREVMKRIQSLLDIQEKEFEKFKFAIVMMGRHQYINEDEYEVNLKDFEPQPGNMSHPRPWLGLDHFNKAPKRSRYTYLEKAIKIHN

By pIC50 is commonly meant the negative decadic logarithm of the IC50, by convention in mol/L. Regarding `CC(c1ccccc1)C(CCCNC(=O)c1ccc2c(Cl)cc(C3CC3)nc2c1)C(=O)N1CCC(O)(Cn2cnc3cc(OCCCN(C)C)ccc3c2=O)CC1` (stereo not shown), the half-life at 1 µM in data set [1] was 7.27 min. Further, the pIC50 in data set [2] is 7.00 to 7.70.

As to `CN1CCN(CCC(=O)Nc2ccc3c(=O)n(CC4(O)CCN(C(=O)C(CCCNC(=O)c5ccc6c(Cl)cc(-c7ccc(F)cc7)nc6c5)Cc5ccccc5)CC4)cnc3c2)CC1` (stereo not shown), in data set [1], the half-life at 1 µM stood at 22.7 min. Moreover, in data set [2], the pIC50 is 6.00 to 7.00.

With `O=C(CN1CCN(C(=O)c2ccc3c(Cl)c4c(nc3c2)CCCC4)CC1)N1CCC(O)(Cn2cnc3cc(Cl)ccc3c2=O)CC1`, the half-life at 1 µM in data set [1] is 2.31 min. For the same molecule, the pIC50 in data set [2] is below 6.00.

`CN(C)CCCOc1ccc2c(=O)n(CC3(O)CCN(C(=O)[C@H](CCCNC(=O)c4ccc5c(Cl)c(C#N)cnc5c4)Cc4ccccc4)CC3)cnc2c1`: in data set [1], the half-life at 1 µM was determined as 1.67 min. The negative-log IC50 (pIC50) in data set [2] was above 7.70.

Take `CN(C)CCCOc1ccc2c(=O)n(CC3(O)CCN(C(=O)[C@H](CCCNC(=O)c4ccc5c(Cl)c(C6CC6)cnc5c4)Cc4ccccc4)CC3)cnc2c1`: the half-life at 1 µM in data set [1] is 31.9 min. Further, in data set [2], the pIC50 is above 7.70.

Turning to `CN(C)CCCOc1ccc2c(=O)n(CC3(O)CCN(C(=O)[C@H](CCCNC(=O)c4cnc5c(Cl)ccnc5c4)Cc4ccccc4)CC3)cnc2c1`, the half-life at 1 µM in data set [1] amounted to 44 min. The pIC50 in data set [2] is 6.00 to 7.00.

For the molecule `CN(C)CCCOc1ccc2c(=O)n(CC3(O)CCN(C(=O)C(CCCNC(=O)c4ccc5c(Cl)c(CO)cnc5c4)Cc4ccccc4)CC3)cnc2c1` (stereo not shown), the half-life at 1 µM in data set [1] was 57.6 min. Further, in data set [2], the pIC50 is above 7.70.

As to `CN(C)CCCOc1ccc2c(=O)n(CC3(O)CCN(C(=O)[C@@H](CCCNC(=O)c4ccc5c(Cl)c(C(N)=O)cnc5c4)Cc4ccccc4)CC3)cnc2c1`, the half-life at 1 µM in data set [1] was found to be 30.2 min. Moreover, the pIC50 in data set [2] is above 7.70.

On to `CN(C)CCCOc1ccc2c(=O)n(CC3(O)CCN(C(=O)[C@H](CCCNC(=O)c4ccc5c(Cl)c(C(=O)N(C)C)cnc5c4)Cc4ccccc4)CC3)cnc2c1`, for which the half-life at 1 µM in data set [1] was 33.8 min. Besides, the pIC50 in data set [2] is 6.00 to 7.00.

Consider `CN(C)CCCOc1ccc2c(=O)n(CC3(O)CCN(C(=O)[C@@H](CCCNC(=O)c4ccc5c(Cl)c(C(=O)NC6CC6)cnc5c4)Cc4ccccc4)CC3)cnc2c1`, for which the half-life at 1 µM in data set [1] came to 62.4 min. Moreover, the pIC50 in data set [2] is above 7.70.

`CN(C)CCCOc1ccc2c(=O)n(CC3(O)CCN(C(=O)[C@H](CCCNC(=O)c4ccc5c(Cl)c6c(nc5c4)CCNC6=O)Cc4ccccc4)CC3)cnc2c1`: the half-life at 1 µM in data set [1] was 10.2 min. The pIC50 in data set [2] is 6.00 to 7.00.

As for `CN(C)CCCOc1ccc2c(=O)n(CC3(O)CCN(C(=O)C(Cc4ccccc4)N(C)CCNC(=O)c4ccc5c(Cl)c(C(=O)NC6CC6)cnc5c4)CC3)cnc2c1` (stereo not shown), the half-life at 1 µM in data set [1] stood at 46.5 min. In addition, the pIC50 in data set [2] was 7.00 to 7.70.

Take `NC(=O)c1cnc2cc(C(=O)NCCCC(Cn3ccc(F)n3)C(=O)N3CCC(O)(Cn4cnc5ccccc5c4=O)CC3)ccc2c1Cl` (stereo not shown): the half-life at 1 µM in data set [1] came out at 6.51 min. The pIC50 in data set [2] is 7.00 to 7.70.

In the case of `O=C(NCCCC(Cn1ccc(F)n1)C(=O)N1CCC(O)(Cn2cnc3ccccc3c2=O)CC1)c1ccc2c(Cl)c(C(=O)NC3CC3)cnc2c1` (stereo not shown), in data set [1], the half-life at 1 µM worked out at 4.61 min. In data set [2], the pIC50 was 7.00 to 7.70.

For the molecule `CN(C)CCC(=O)Nc1ccc2c(=O)n(CC3(O)CCN(C(=O)N(CCCNC(=O)c4ccc5c(Cl)ccnc5c4)Cc4ccccc4)CC3)cnc2c1` [Compound 83], the pIC50 in data set [2] is below 6.00.

In the case of `CN(C)CCC(=O)Nc1ccc2c(=O)n(CC3(O)CCN(C(=O)C(CCCNC(=O)c4ccc5c(Cl)c6c(nc5c4)CNCC6)Cc4ccccc4)CC3)cnc2c1` (stereo not shown) [Compound 88], the pIC50 in data set [2] was below 6.00.

With `CN(C)CCC(=O)Nc1ccc2c(=O)n(CC3(O)CCN(C(=O)C(CCCNC(=O)c4ccc5c(Cl)c6c(nc5c4)CCOC6)Cc4ccccc4)CC3)cnc2c1` (stereo not shown) [Compound 90], the pIC50 in data set [2] is 7.00 to 7.70.

On to `C=CS(=O)(=O)Nc1ccccc1N1CCC(C(=O)N2CCC(O)(Cn3cnc4cc(NC(=O)CCN5CCN(C)CC5)ccc4c3=O)CC2)CC1` [Compound 92], for which the pIC50 in data set [2] was 7.00 to 7.70.

With `O=C(NCCN1CC[C@@H](C(=O)N2CCC(O)(Cn3cnc4c(-c5ccc(Br)cc5)nsc4c3=O)CC2)[C@H](c2ccccc2)C1)c1ccc2c(Cl)ccnc2c1` [Compound 98], in data set [2], the negative-log IC50 (pIC50) is 6.00 to 7.00.

Turning to `CC1(C)C2C(=O)N(CC3(O)CCN(C(=O)[C@@H]4CCN(CCNC(=O)c5ccc6c(Cl)ccnc6c5)C[C@H]4c4ccccc4)CC3)C(=O)C21` (stereo partly shown) [Compound 99], the pIC50 in data set [2] was below 6.00.

In the case of `O=C(CCN1CCNCC1)Nc1ccn2c(=O)c(CN3CCN(C(=O)[C@@H]4CCN(CCNC(=O)c5ccc6c(Cl)ccnc6c5)C[C@H]4c4ccccc4)CC3)cnc2c1` [Compound 100], the pIC50 in data set [2] was below 6.00.

Take `O=C(CCN1CCNCC1)Nc1ccc2c(=O)n(CC3(O)CCN(C(=O)[C@@H]4CCN(CCNC(=O)c5ccc6c(Cl)ccnc6c5)C[C@H]4c4ccc(C(F)(F)F)cc4)CC3)cnc2c1` [Compound 101]: in data set [2], the pIC50 was below 6.00.

Turning to `C=CC(=O)Nc1ccc(Cl)cc1N1CCC(C(=O)N2CCC(O)(Cn3cnc4cc(NC(=O)CCN5CCN(C)CC5)ccc4c3=O)CC2)C(c2ccccc2)C1` (stereo not shown) [Compound 103], the pIC50 in data set [2] is 6.00 to 7.00.

Turning to `C=CC(=O)Nc1ccc(C(F)(F)F)cc1N1CCC(C(=O)N2CCC(O)(Cn3cnc4cc(NC(=O)CCN5CCN(C)CC5)ccc4c3=O)CC2)C(c2ccccc2)C1` (stereo not shown) [Compound 104], the pIC50 in data set [2] is 6.00 to 7.00.

With `O=C(NCCN1CCC(C(=O)N2CCC(O)(Cn3cnc4cc(OCCN5CCNCC5)ccc4c3=O)CC2)C(c2ccccc2)C1)c1ccc2c(Cl)cc(C3CC3)nc2c1` (stereo not shown) [Compound 107], in data set [2], the pIC50 is 7.00 to 7.70.

As for `CN(C)CCOc1cc(F)c2c(=O)n(CC3(O)CCN(C(=O)[C@H](CCCNC(=O)c4ccc5c(Cl)cc(C6CC6)nc5c4)Cc4ccccc4)CC3)cnc2c1` [Compound 118], in data set [2], the pIC50 is 6.00 to 7.00.

`CN(C)CCCOc1ccc2c(=O)n(CC3(O)CCN(C(=O)[C@H](CCCNC(=O)c4ccc5c(Cl)c(C(F)F)cnc5c4)Cc4ccccc4)CC3)cnc2c1` [Compound 130]: the pIC50 in data set [2] is above 7.70.

Take `CN(C)CCCOc1ccc2c(=O)n(CC3(O)CCN(C(=O)[C@H](CCCNC(=O)c4ccc5c(Cl)c(F)cnc5c4)Cc4ccccc4)CC3)cnc2c1` [Compound 131]: in data set [2], the pIC50 was 6.00 to 7.00.

As for `O=C(NCCC[C@H](Cc1ccccc1)C(=O)N1CCC(O)(Cn2cnc3cc(-c4ncc(CN5CCNCC5)o4)ccc3c2=O)CC1)c1ccc2c(Cl)cc(C3CC3)nc2c1` [Compound 135], the negative-log IC50 (pIC50) in data set [2] was 7.00 to 7.70.

For `CN(C)CCCNc1ccc2c(=O)n(CC3(O)CCN(C(=O)[C@H](CCCNC(=O)c4ccc5c(Cl)cc(C6CC6)nc5c4)Cc4ccccc4)CC3)cnc2c1` [Compound 136], the negative-log IC50 (pIC50) in data set [2] is above 7.70.

Take `COc1cc2c(=O)n(CC3(O)CCN(C(=O)[C@H](CCCNC(=O)c4ccc5c(Cl)cc(C6CC6)nc5c4)Cc4ccccc4)CC3)cnc2cc1OCCCN(C)C` [Compound 138]: in data set [2], the pIC50 was 7.00 to 7.70.

Take `O=C(NCCN1CC[C@@H](C(=O)N2CCC(O)(Cn3cnc4cc(-c5nc(CN6CCNCC6)co5)ccc4c3=O)CC2)[C@H](c2ccccc2)C1)c1ccc2c(Cl)ccnc2c1` [Compound 144]: in data set [2], the pIC50 is 7.00 to 7.70.
